The values below come from ChEMBL document CHEMBL4270602, “Design, synthesis, docking studies and biological screening of 2-thiazolyl substituted -2,3-dihydro-1H-naphtho[1,2-e][1,3]oxazines as potent HIV-1 reverse transcriptase inhibitors” (Eur J Med Chem, 2018).

Data set [1] concerns the target Human immunodeficiency virus type 1 reverse transcriptase (Human immunodeficiency virus 1) (UniProt Q72547). Put plainly: Potency index, ratio of inophyllym B EC50 to compound EC50 for inhibition of recombinant HIV-1 reverse transcriptase RNA-dependent DNA polymerase activity.
Data set [2] in a line: Therapeutic index, ratio of CC50 for human CEM-GFP cells to IC50 for HIV-1 NL4-3 infected in human CEM-GFP cells. The format is toxicity, cell-based. The conditions noted are these: read-out: Ratio CC50/IC50.
Data set [3] concerns the target Human immunodeficiency virus type 1 reverse transcriptase (Human immunodeficiency virus 1, UniProt Q72547). Put plainly: Inhibition of recombinant HIV-1 reverse transcriptase RNA-dependent DNA polymerase activity using poly(rA)/oligo(dT)16 as template/primer preincubated for 5 to 10 mins followed by template/primer addition and measured after 16 hrs by colorimetric assay.

Data set [4] in a line: Cytotoxicity against human CEM-GFP cells after 48 hrs by MTT assay. The format is cell-based.
The subject of data set [5] is Human immunodeficiency virus 1. Description: Antiviral activity against Human immunodeficiency virus 1 NL4-3 infected in human CEM-GFP cells after 7 days by p24 ELISA. The format is functional, organism-based. The conditions noted are these: Human immunodeficiency virus 1, NL4-3, CEM-GFP, 168 h.
Data set [6] deals with Human immunodeficiency virus type 1 reverse transcriptase (Human immunodeficiency virus 1) (UniProt Q72547). Description: Potency index, ratio of efavirenz EC50 to compound EC50 for inhibition of recombinant HIV-1 reverse transcriptase RNA-dependent DNA polymerase activity.

In the case of `FC(F)(F)c1ccc(-c2csc(N3COc4ccc5ccccc5c4C3)n2)cc1`, in data set [1], the Ratio EC50 was found to be 3. In data set [2], the selectivity ratio worked out at 258. In data set [3], the EC50 (usually the concentration needed to bring the measured effect to its halfway point) worked out at 79 nM. Moreover, it took 24700 nM to reach half-maximal cytotoxicity in data set [4] (CC50 at 48 h). In data set [5], half-maximal inhibition (IC50) required 95.5 nM.

`Cc1cn([C@H]2C[C@H](N=[N+]=[N-])[C@@H](CO)O2)c(=O)[nH]c1=O` [ZIDOVUDINE]: the selectivity ratio in data set [2] amounted to 236. In addition, in data set [4], the midpoint of cytotoxicity, the CC50 at 48 h, lay at 13100 nM. Further, the concentration for half-maximal inhibition (IC50) (as a rule, the point on the concentration scale where inhibition reaches its midpoint) in data set [5] was 55.7 nM.

As for `COc1ccc2c3c(ccc2c1)OCN(c1nc(-c2ccc(F)cc2)cs1)C3`, the selectivity ratio in data set [2] came out at 96.2. In addition, the EC50 in data set [3] is 192 nM. The midpoint of cytotoxicity in data set [4], the CC50 at 48 h, lay at 24300 nM. This compound also had an IC50 in data set [5] of 253 nM.

On to `Fc1ccc(-c2csc(N3COc4ccc5ccccc5c4C3)n2)cc1`, for which the selectivity ratio in data set [2] amounted to 106. Besides, the EC50 in data set [3] came out at 210 nM. It took 25300 nM to reach half-maximal cytotoxicity in data set [4] (CC50 at 48 h). This compound came in with an IC50 in data set [5] of 239 nM.

As to `O=C1Nc2ccc(Cl)cc2[C@@](C#CC2CC2)(C(F)(F)F)O1` [EFAVIRENZ], the cytotoxic concentration (CC50) – broadly, the concentration that lowers cell viability or growth by half – at 48 h in data set [4] came out at 40500 nM. This compound also displayed an IC50 in data set [5] of 163 nM.

Consider `COc1ccc2c3c(ccc2c1)OCN(c1nc(-c2ccc(C(F)(F)F)cc2)cs1)C3`, for which the selectivity ratio in data set [2] was found to be 318. Moreover, in data set [6], the Ratio EC50 came out at 2.5. For the same compound, in data set [3], the EC50 was found to be 66 nM. In data set [4], this compound gave a CC50 at 48 h of 26300 nM. Besides, in data set [5], the IC50 stood at 82.7 nM.

`C[C@H]1[C@H](O)c2c(c3c(c4c(-c5ccccc5)cc(=O)oc24)OC(C)(C)C=C3)O[C@@H]1C`: the EC50 in data set [3] is 225 nM.
